Test [1] relates to testosterone. Description: Testosterone concentration in plasma (ELISA kit) of testosterone-injected rats. Format: in vivo, male wistar albino rats. To be noted: for concentration of testosterone in plasma (FIG. 4a): testosterone-injected rats, compounds or mixture oral 10 mg/kg daily 21 days. How it is done:
(§1) For 21 days, the testosterone solution and broccoli extract, avocado extract or broccoli and avocado extract were administered, and on the next day, before skin samples were collected, plasma from rats was extracted and the concentration of testosterone and DHT were measured using a testosterone and DHT ELISA kit (Arigo Biolaboratories, Taiwan) according to the manufacturer's instructions.
On the technique in general: An ELISA detects its analyte on a solid surface through an enzyme-linked reagent.

Test [2] relates to dihydrotestosterone (DHT). Description: DHT concentration in plasma (ELISA kit) of testosterone-injected rats. Particulars: for concentration of DHT in plasma (FIG. 4b): testosterone-injected rats, compounds or mixture oral 10 mg/kg daily 21 days. The class given is in vivo, male wistar albino rats. How it is done: as §1
In test [3] the test system is hair follicles. Description: Shape and length of hair follicles in haematoxylin and eosin stained dorsal skin. The class given is in vivo, male wistar albino rats. To be noted: testosterone-injected rats; for length of hair follicles (FIG. 5): compounds or mixture oral 10 mg/kg daily 21 days, compared to negative control (negative control compared to normal group). How it is done:
By staining the skin tissue of experimental animals, the shape change of hair follicles was investigated. […] After 24 hours, the skin sample was soaked in paraffin wax and sectioned to a uniform thickness of 10 μm, and hair follicles were stained with haematoxylin and eosin.

Test [4] deals with hair follicles. The experiment in a line: Density of hair follicles in skin (number in 1 mm^2). Particulars: testosterone-injected rats; for Rate of change compared to normal group (%) (density of hair follicles): Table 7, Equation 1, compounds or mixture oral 10 mg/kg daily 21 days. The class given is in vivo, male wistar albino rats. How it is done:
The density of hair follicles was measured by counting the number of hair follicles in a unit area (1 mm^2).
Rate of change compared to normal group=(hair follicle density of negative control group or experimental group−hair follicle density of normal group)/hair follicle density of normal group (Equation 1)
(§2) The normal control group (control; normal group) is a group in which neither testosterone nor the extract is administered, and the negative control group (Testosterone; T) is a group in which only testosterone is administered.
as §2
As a comparative group, the mixture was administered by the same method, and the administration method was a method of intraperitoneal administration (IP). The normal control group (control; normal group) is a group in which neither testosterone nor the extract is administered, and the negative control group (Testosterone; T) is a group in which only testosterone is administered.

For test [5], the system named is hair follicles. Description: Ratio of anagen stage and telogen stage of hair follicles in skin. To be noted: for Rate of change compared to normal group (anagen/telogen ratio) / Anagen / Telogen / Anagen/telogen ratio: testosterone-injected rats.
Procedure: Male wistar albino rats weight 180 to 240 g, February to March age were bred under the conditions of a constant light-dark cycle in which light was applied from 8 am to 8 pm, a temperature of 22 to 25° C., and a relative humidity of 60%. For the feed of experimental animals, a general pellet dry feed was used, and feed and water were allowed to be consumed at all times.
In addition, the broccoli extract and/or avocado extract prepared in Example 1 were orally administered for a total of 21 days daily so as to be a dose of 100 mg per 1 kg of the body weight of each experimental animal (in case of coadministration group, broccoli extract 67 mg/kg+avocado extract 33 mg/kg).
Rate of change compared to normal group=(anagen/telogen ratio of negative control group or experimental group−anagen/telogen ratio of normal group)/anagen/telogen ratio of normal group (Equation 2)
Where [6] appears, read: rats injected s.c. with testosterone 21 days, extracts oral 100 mg/kg daily 21 days (mixture BE 67 + AE 33 mg/kg), negative control compared to normal group.
[7] abbreviates: Table 7, compounds or mixture (SFN 8 + I3C 1 + β-sitosterol 1 mg/kg) oral 10 mg/kg daily 21 days, mean ± SEM, n = 15.
Setting [8] is: Table 8, Equation 2, compounds or mixture oral 10 mg/kg daily 21 days.
Where [9] appears, read: Table 8, compounds or mixture oral 10 mg/kg daily 21 days.
Where [10] appears, read: Table 8, compounds or mixture oral 10 mg/kg daily 21 days, listed as Group B, 10 mg/kg.
The mark [11] stands for this setting: Table 8, compounds or mixture oral 10 mg/kg daily 21 days, listed as testosterone solution, 10 mg/kg.

We go through four compounds from patent US20230372277A1, “COMPOSITION FOR PROMOTING HAIR GROWTH AND/OR INHIBITING HAIR LOSS” (priority 2020, published 2023).

Molecules are shown by their SMILES. Marks after values point to notes of the source that are not given here.

Turning to `C[C@]12CC[C@H]3[C@@H](CCC4=CC(=O)CC[C@@]43C)[C@@H]1CC[C@@H]2O` [Testosterone, testosterone], the “concentration of testosterone in plasma (FIG. 1a)” value in test [1] (setting [6]) was “largely increased”. Moreover, the “concentration of testosterone in plasma (FIG. 4a)” value (“concentration … (FIG. 4a)” for short) in test [1] is listed as “largely increased”. Also, the “concentration of DHT in plasma (FIG. 1b)” value in test [2] (setting [6]) is “largely increased”. Further, in test [2], the “concentration of DHT in plasma (FIG. 4b)” value was “largely increased”. Further, the “length of hair follicles (FIG. 5)” value in test [3] is “largely reduced”. Also, the “shape change of hair follicles (stained photograph, FIG. 2)” value in test [3] (extracts oral 100 mg/kg daily 21 days, H&E stained dorsal skin) is listed as “many hair follicles in the telogen stage were found”. Further, the “length of hair follicles (FIG. 3)” value in test [3] (extracts oral 100 mg/kg daily 21 days, extracts compared to negative control, negative control compared to normal group) is “largely reduced”. The “Rate of change compared to normal group (hair follicle density)” value in test [4] (Table 2, Equation 1, extracts oral 100 mg/kg daily 21 days) is given as −30.53%. Besides, the Hair follicle density in test [4] (Table 2, number of hair follicles in 1 mm^2, extracts oral 100 mg/kg daily 21 days, mean ± SEM, n = 15) came out at 0.91 ± 0.069; in test [4] (Table 5, broccoli extracts by extraction solvent, same method as Example 3-2, mean ± standard error) it was 0.98 ± 0.23. Also, in test [4], the “Rate of change compared to normal group (%) (density of hair follicles)” value (from here on “Rate of change … (%) (density of hair follicles)”) is listed as −30.53%. For the same compound, the “Density of hair follicles” value in test [4] (setting [7]) is reported as 0.91 ± 0.069; in test [4] (Table 9, SFN:I3C:β-sitosterol mixtures at various mixing ratios, oral 10 mg/kg in total daily 21 days, mean ± standard error) it was 0.98 ± 0.23. For the same compound, in test [4] (Table 9, Equation 1, mixtures at various mixing ratios, oral 10 mg/kg in total daily 21 days), the “Rate of change compared to normal group (density of hair follicles)” value was −21.6%. Besides, the “Rate of change compared to normal group (anagen/telogen ratio)” value (shortened to “Rate of change … (anagen/telogen ratio)”) in test [5] (Table 3, Equation 2, extracts oral 100 mg/kg daily 21 days) is −91.23%; in test [5] (setting [8]), −91.23%. Further, the Anagen in test [5] (Table 3, hair follicles in anagen stage, extracts oral 100 mg/kg daily 21 days, listed as Group 2, 100 mg/kg) is given as 14.6; in test [5] (Table 3, hair follicles in anagen stage, extracts oral 100 mg/kg daily 21 days, listed as testosterone solution, 100 mg/kg), “reduced”; in test [5] (setting [10]), 14.6; in test [5] (setting [11]) it was “reduced”. Besides, the Telogen is 85.4 in test [5] (Table 3, hair follicles in telogen stage, extracts oral 100 mg/kg daily 21 days, listed as Group 2, 100 mg/kg); “increased” in test [5] (Table 3, hair follicles in telogen stage, extracts oral 100 mg/kg daily 21 days, listed as testosterone solution, 100 mg/kg); 85.4 in test [5] (setting [10]); “increased” in test [5] (setting [11]). The Anagen/telogen ratio in test [5] (Table 3, extracts oral 100 mg/kg daily 21 days) turned out to be 0.171; in test [5] (setting [9]) it was 0.17. Further, the “anagen/telogen ratio reduced compared to the normal group” value in test [5] (negative control group administered only with the testosterone solution s.c. 21 days) is on record as “about 91%”.
In the case of `CC[C@H](CC[C@@H](C)[C@H]1CC[C@H]2[C@@H]3CC=C4C[C@@H](O)CC[C@]4(C)[C@H]3CC[C@]12C)C(C)C` [β-sitosterol], in test [2], the “concentration of DHT in plasma (FIG. 4b)” value is given as “significantly reduced”. The “length of hair follicles (FIG. 5)” value in test [3] was “increased”. For the same compound, the “Rate of change … (%) (density of hair follicles)” value was “about 68%” in test [4] (10 mg/kg) and “+67.56%” in test [4] (listed as Group E, 10 mg/kg). Besides, in test [4] (setting [7]), the “Density of hair follicles” value stood at 2.195 ± 0.093.
With `C[S+]([O-])CCCCN=C=S` (stereo not drawn) [sulforaphane], the “concentration … (FIG. 4a)” value in test [1] is reported as “significantly reduced”. Also, in test [2], the “concentration of DHT in plasma (FIG. 4b)” value was “significantly reduced”. In addition, the “length of hair follicles (FIG. 5)” value in test [3] was “increased”. Besides, the “Rate of change … (%) (density of hair follicles)” value in test [4] (10 mg/kg) is listed as “about 47%”; in test [4] (listed as Group C, 10 mg/kg), “+47.33%”. Further, the “Density of hair follicles” value in test [4] (setting [7]) is recorded as 1.93 ± 0.102. Moreover, in test [5] (setting [8]), the “Rate of change … (anagen/telogen ratio)” value is reported as −47.05%. Also, in test [5] (setting [9]), the Anagen/telogen ratio is listed as 1.03*.
As for `OCc1c[nH]c2ccccc12` [indole-3-carbinol], in test [1], the “concentration … (FIG. 4a)” value was “significantly reduced”. Also, the “concentration of DHT in plasma (FIG. 4b)” value in test [2] is recorded as “significantly reduced”. In addition, the “length of hair follicles (FIG. 5)” value in test [3] was “increased”. The “Rate of change … (%) (density of hair follicles)” value is “about 21%” in test [4] (10 mg/kg) and “+21.37%” in test [4] (listed as Group D, 10 mg/kg). Moreover, the “Density of hair follicles” value in test [4] (setting [7]) is listed as 1.59 ± 0.74. For the same compound, the “Rate of change … (anagen/telogen ratio)” value in test [5] (setting [8]) was −54.88%. In test [5] (setting [9]), the Anagen/telogen ratio is 0.87*.
